Patent publication US6660830B1, “Peptides with antiproliferative properties” (priority 1996, dated 2003)
Positions of bridges follow the written chain, without caps; N, C: chain ends. Non-standard residues stand in square brackets, D forms with d. Chains are numbered I, II in the order given. No end group written: not given here.

Experiments:
MCF-7 cells [1] = assay: Cell cycle distribution by FACS in MCF-7 breast cancer cells; type: cell-based; conditions: for morphology of treated cells: peptide 10^-5 M (FIG. 2, 4, 7, 11, 12); for effect on S phase (words, summary of Table 1): MCF-7 stimulated by IGF-1 10^-8 M or insulin 10^-6 M; for effect on S phase (words, summary of Table 1) / G1 (cell population in G1 phase) / G2/M (cell population in G2/M phase) / S (cell population in S phase): peptide 10^-5 M; for G1 (cell population in G1 phase) / G2/M (cell population in G2/M phase) / S (cell population in S phase): FACS
Experimental: (§1) The experimental setting comprises experiments with the breast cancer cell line MCF-7 containing an intact retinblastoma protein and the human osteosarcoma cell line SAOS-2 containing a defective retinoblastoma protein. Cells are seeded in 12-well plates at 100000 (=one hundred thousand) cells/well/ml in RPMI medium or DMEM medium containing 10% FCS and allowed to adhere for 24 hours. Subsequently, the cells are starved by incubation for 3 days in DMEM without FCS, such that they are synchronized in the G0/G1 phase and then the cells are stimulated by 10% FCS or 10^−8 M IGF-1 or 10^−6 M insulin, respectively, for 24 hours. The effect of each of the added peptides on each of the above modes of stimulation, which effect reflects the rate of cell division, is investigated. The control (cells synchronized in G0/G1) is fixed at time 0 after three days of starvation. The remaining cells (+/−peptide) are fixed after 24 hours. The cells are subsequently analyzed by FACS for their cell cycle distribution. Analogous methods are to be found e.g. in R. Fahraeus et al., Current Biology, 1996, vol. 6, no. 1, pp. 84-91 and L. Zhu et al., Genes & Development, 1993, vol. 7, pp. 1111-1125.

CCRF-CEM cells = assay: Cytotoxicity by the trypan blue method in CCRF-CEM sensitive leukemia cells; type: cell-based; conditions: asynchronously growing CCRF-CEM sensitive cells, RPMI 10% FCS; peptide 10^-5 M (FIG. 14)
Experimental: (§2) The second experimental setting relates to the leukemia cell lines K562 and CCRF-CEM and CCRF-CEM/ACT400. 100000 asynchronously growing cells/well/ml RPMI/10% FCS have each been incubated for 48 hours with each of the peptides in 6-well plates. As a readout, the number of dead cells/200 counted cells is determined according to the trypan blue method (L. D. Attardi et al., The EMBO Journal, 1996, vol. 15, no. 14, pp. 3693-3701 and M. K. Reeder & H. C. Isom, Cell Growth & Differentiation 196, vol. 7, pp. 449-460) after this 48-hour incubation.

K562 cells = assay: Cytotoxicity by the trypan blue method in K562 leukemia cells; type: cell-based; conditions: asynchronously growing K562 in RPMI; peptide 10^-5 M (FIG. 13)
Experimental: The results have been plotted as the living cells treated with P3 being a percentage of the living cells not treated with P3. The number of the living cells has been determined by counting at least 200 cells at each time point according to the trypan blue method.
as §2

[2] = system: normal human peripheral blood mononuclear cells; assay: Effect on normal peripheral blood mononuclear cells; type: cell-based; conditions: peptide 10^-5 M, 24 hours (FIG. 15)
Experimental: The incubation of cells with P3 was performed for a time period of 24 hours.

MCF-7 cells [3] = assay: Cell cycle distribution by FACS in MCF-7 breast cancer cells; type: cell-based
CCRF-CEM/ACT 400 cells = assay: Cytotoxicity by the trypan blue method in CCRF-CEM/ACT 400 resistant leukemia cells; type: cell-based; conditions: asynchronously growing CCRF-CEM/ACT 400 resistant cells, RPMI 10% FCS; peptide 10^-5 M (FIG. 14)
Experimental: as §2

SAOS-2 cells [4] = assay: Cell cycle distribution by FACS in SAOS-2 osteosarcoma cells; type: cell-based, human; conditions: for effect on cell cycle phases (words, summary of Table 2): peptide 5x10^-5 M each; for G1 (cell population in G1 phase) / G2/M (cell population in G2/M phase) / S (cell population in S phase): SAOS-2 synchronized in G0/G1, stimulated by 10% FCS for 24 h, peptide 5x10^-5 M, FACS
Experimental: as §1

SAOS-2 cells [5] = assay: as above; type: cell-based, human; conditions: SAOS-2 synchronized in G0/G1, serum-free conditions; peptide 10^-5 M (FIG. 8)
[6] = MCF-7 stimulated by IGF-1 10^-8 M
[7] = MCF-7 stimulated by IGF-1 10^-8 M, peptide 10^-5 M (FIG. 2, 4, 11, 12)
[8] = MCF-7 synchronized in G0/G1, serum-free conditions, peptide 10^-5 M (FIG. 1, 3)
[9] = MCF-7 stimulated by EGF 10^-8 M, peptide 10^-5 M (FIG. 6)
[10] = MCF-7 stimulated by estradiol (E2) 10^-9 M, peptide 10^-5 M (FIG. 6)
[11] = asynchronously growing MCF-7 in DMEM containing 10% FCS, peptide 10^-5 M (FIG. 10)
[12] = SAOS-2 stimulated by 10% FCS, peptide 10^-5 M (FIG. 9)
[13] = MCF-7 synchronized in G0/G1, stimulated by IGF-1 10^-8 M for 24 h
[14] = MCF-7 synchronized in G0/G1, stimulated by insulin 10^-6 M for 24 h

Substance: I: [dL][dF][dY][dK][dK][dV]GGGK[dR]GKG / II: [dL][dF][dY][dK][dK][dV]GGGK[dR]G / III: [dL][dF][dY][dK][dK][dV]GGG / IV: [dL][dF][dY][dK][dK][dV]GGG (amide I:10-IV:C, I:13-II:C, II:10-III:C) [P3, NH2-[dLdFdYdKdKdV-GGG]4-[1KdRG]2-1KG-COOH]
- morphology of treated cells (MCF-7 cells [1]; [6]): corresponds to that of apoptotic cells
- effect on cell cycle phases (MCF-7 cells [1]; [7]): increase of the G1 and G2/M phases as well as in a decrease of the S phase
- effect on cell cycle phases (MCF-7 cells [1]; [8]): reduces the G1 phase and increases the S phase
- cytotoxic effect (CCRF-CEM cells): act in a cytotoxic manner
- cytotoxic effect (living treated cells as percentage of living untreated cells, trypan blue) (K562 cells): time-dependent
- effect on normal cells ([2]; activated state (b)): no effect
- morphological changes of treated cells ([2]; quiescent or activated): do not show any morphological changes
- effect on normal cells ([2]; quiescent state (a)): no effect
- morphology of treated cells (MCF-7 cells [3]; MCF-7, IGF-1 10^-8 M, peptide 5x10^-6 M (FIG. 7)): corresponds to that of apoptotic cells
- blocks the progression of the cell cycle caused by IGF-1 (MCF-7 cells [3]; MCF-7, IGF-1 10^-8 M, several peptide concentrations (FIG. 7)): in a dose-dependent manner
- effect on cell cycle phases (MCF-7 cells [3]; [9]): increases the G1- and the G2 phases as well as decreases the S phase
- morphology of treated cells (MCF-7 cells [3]; [9]): corresponds to that of apoptotic cells
- effect on cell cycle phases (MCF-7 cells [3]; [10]): increases the G1- and the G2 phases as well as decreases the S phase
- morphology of treated cells (MCF-7 cells [3]; [10]): corresponds to that of apoptotic cells
- morphology of treated cells (MCF-7 cells [3]; [8]): corresponds to that of apoptotic cells
- effect on cell cycle phases (MCF-7 cells [3]; [11]): reduces the G1 phase and increases the S phase
- morphology of treated cells (MCF-7 cells [3]; [11]): corresponds to that of apoptotic cells
- cytotoxic effect (CCRF-CEM/ACT 400 cells): act in a cytotoxic manner
- effect on cell cycle phases (SAOS-2 cells [4]; [12]): increases the G1 phase and decreases the S phase
- morphology of treated cells (SAOS-2 cells [4]; [12]): corresponds to that of apoptotic cells
- effect on cell cycle phases (SAOS-2 cells [5]): reduces the G1 phase and increases the S and G2/M phases
- morphology of treated cells (SAOS-2 cells [5]): corresponds to that of apoptotic cells

Substance: NH2-KVLYFKRQIKIWFQNRRMKWKK-COOH (H-KVLYFKRQIKIWFQNRRMKWKK-OH) [P8]
- morphology of treated cells (MCF-7 cells [1]; [6]): corresponds to that of apoptotic cells
- effect on cell cycle phases (MCF-7 cells [1]; [7]): increases the G1 phase and the G2/M phase as well as decreases the S phase

Substance: NH2-LFYKKVPKKKRKV-COOH (H-LFYKKVPKKKRKV-OH) [P5]
- effect on S phase (words, summary of Table 1) (MCF-7 cells [1]): reduce the S phase
- effect on cell cycle phases (MCF-7 cells [1]; [8]): reduces the G1 phase and increases the S phase
- G1 (cell population in G1 phase) (MCF-7 cells [1]; [13]): 54.0
- G2/M (cell population in G2/M phase) (MCF-7 cells [1]; [13]): 13.6
- S (cell population in S phase) (MCF-7 cells [1]; [13]): 32.4
- morphology of treated cells (MCF-7 cells [3]; [8]): corresponds to that of apoptotic cells
- effect on cell cycle phases (words, summary of Table 2) (SAOS-2 cells [4]; SAOS-2 stimulated by 10% FCS): increase of the G1 phase and a decrease of the S phase
- G1 (cell population in G1 phase) (SAOS-2 cells [4]): 73.5
- G2/M (cell population in G2/M phase) (SAOS-2 cells [4]): 13.3
- S (cell population in S phase) (SAOS-2 cells [4]): 13.2

Substance: NH2-LFYKKVRQIKIWFQNRRMKWKK-COOH (H-LFYKKVRQIKIWFQNRRMKWKK-OH) [P6]
- effect on S phase (words, summary of Table 1) (MCF-7 cells [1]): reduce the S phase
- morphology of treated cells (MCF-7 cells [1]; [6]): corresponds to that of apoptotic cells
- effect on cell cycle phases (MCF-7 cells [1]; [7]): increases the G1 phase as well as decreases the S phase
- effect on cell cycle phases (MCF-7 cells [1]; [8]): reduces the G1 phase and increases the S phase
- G1 (cell population in G1 phase) (MCF-7 cells [1]; [13]): 53.7
- G2/M (cell population in G2/M phase) (MCF-7 cells [1]; [13]): 18.6
- S (cell population in S phase) (MCF-7 cells [1]; [13]): 27.7
- G1 (cell population in G1 phase) (MCF-7 cells [1]; [14]): 48.7
- G2/M (cell population in G2/M phase) (MCF-7 cells [1]; [14]): 14.6
- morphology of treated cells (MCF-7 cells [3]; [8]): corresponds to that of apoptotic cells
- S (cell population in S phase) (MCF-7 cells [3]; MCF-7 synchronized in G0/G1, stimulated by insulin 10^-6 M for 24 h, peptide 10^-5 M, FACS): 36.6
- effect on cell cycle phases (words, summary of Table 2) (SAOS-2 cells [4]; SAOS-2 stimulated by 10% FCS): increase of the G1 phase and a decrease of the S phase
- G1 (cell population in G1 phase) (SAOS-2 cells [4]): 76.6
- G2/M (cell population in G2/M phase) (SAOS-2 cells [4]): 11.2
- S (cell population in S phase) (SAOS-2 cells [4]): 12.2

Substance: NH2-[dKdVdLdYdFdKGGG]4-[1KdRG]2-1KG-COOH (H-[dK][dV][dL][dY][dF][dK]GGG[dK][dV][dL][dY][dF][dK]GGG[dK][dV][dL][dY][dF][dK]GGG[dK][dV][dL][dY][dF][dK]GGGK[dR]GK[dR]GKG-OH; also: branched: four arms on polylysine core) [P7s, combination of dKdVdLdYdFdK, hydropathically homologous to P1, and a polylysine core]
- morphology of treated cells (MCF-7 cells [1]; [6]): corresponds to that of apoptotic cells
- effect on cell cycle phases (MCF-7 cells [1]; [7]): increases the G1 phase and the G2/M phase as well as decreases the S phase
